Reference: ChEMBL document CHEMBL5291721, “A preclinical secondary pharmacology resource illuminates target-adverse drug reaction associations of marketed drugs” (Nat Commun, 2023)

Assays:
Melanocortin receptor 4 = Melanocortin receptor 4 (Homo sapiens, UniProt P32245)
Glucagon receptor = Glucagon receptor (Homo sapiens, UniProt P47871)
[1] = target: T1, Gamma-aminobutyric acid receptor subunit alpha-1/alpha-2/beta-2/gamma-2 (Homo sapiens, UniProt P14867+P18507+P47869+P47870); assay type: functional, cell-based
[2] = target: T2, Corticotropin-releasing factor receptor 1 (Homo sapiens, UniProt P34998)
T2 sequence (P34998 whole entry): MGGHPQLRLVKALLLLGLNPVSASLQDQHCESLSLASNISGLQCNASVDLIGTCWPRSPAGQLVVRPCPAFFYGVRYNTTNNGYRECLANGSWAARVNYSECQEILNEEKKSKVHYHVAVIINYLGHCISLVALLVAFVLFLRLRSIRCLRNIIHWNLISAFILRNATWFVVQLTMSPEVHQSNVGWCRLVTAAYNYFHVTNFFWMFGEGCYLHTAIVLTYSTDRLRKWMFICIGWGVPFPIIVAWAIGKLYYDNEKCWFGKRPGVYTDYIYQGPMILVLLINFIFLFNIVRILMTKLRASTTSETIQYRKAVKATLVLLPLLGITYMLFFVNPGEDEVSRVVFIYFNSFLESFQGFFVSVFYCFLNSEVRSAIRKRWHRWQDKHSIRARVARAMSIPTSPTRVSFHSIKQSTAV

[3] = target: Voltage-dependent L-type calcium channel subunit alpha-1C (Rattus norvegicus, UniProt P22002); assay type: functional
Glucocorticoid receptor = target: T3, Glucocorticoid receptor (Homo sapiens, UniProt P04150)
T3 sequence (P04150 whole entry): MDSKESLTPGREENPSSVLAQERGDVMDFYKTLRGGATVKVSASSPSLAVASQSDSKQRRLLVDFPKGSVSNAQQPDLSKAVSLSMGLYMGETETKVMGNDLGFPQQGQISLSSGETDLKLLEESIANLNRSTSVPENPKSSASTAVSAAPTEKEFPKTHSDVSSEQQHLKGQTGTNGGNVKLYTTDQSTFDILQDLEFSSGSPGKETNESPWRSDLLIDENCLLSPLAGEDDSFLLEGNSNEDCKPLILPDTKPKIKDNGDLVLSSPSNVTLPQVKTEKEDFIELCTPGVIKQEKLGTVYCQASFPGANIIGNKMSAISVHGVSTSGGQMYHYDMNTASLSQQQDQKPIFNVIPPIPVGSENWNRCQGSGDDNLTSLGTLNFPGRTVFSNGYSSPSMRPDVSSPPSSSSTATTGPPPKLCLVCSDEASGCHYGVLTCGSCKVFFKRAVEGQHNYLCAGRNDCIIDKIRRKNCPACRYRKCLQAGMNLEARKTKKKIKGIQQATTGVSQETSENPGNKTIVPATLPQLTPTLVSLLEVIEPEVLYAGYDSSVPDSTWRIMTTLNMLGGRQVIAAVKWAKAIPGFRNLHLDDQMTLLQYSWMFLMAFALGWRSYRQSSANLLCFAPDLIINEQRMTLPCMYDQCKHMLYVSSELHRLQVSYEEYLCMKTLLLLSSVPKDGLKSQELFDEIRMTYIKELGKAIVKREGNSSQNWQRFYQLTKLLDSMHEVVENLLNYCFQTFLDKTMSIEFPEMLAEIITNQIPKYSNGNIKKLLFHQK

Cannabinoid receptor 1 = Cannabinoid receptor 1 (Homo sapiens, UniProt P21554)
[4] = target: T4, Alpha-1A adrenergic receptor (Homo sapiens, UniProt P35348)
T4 sequence (P35348 whole entry): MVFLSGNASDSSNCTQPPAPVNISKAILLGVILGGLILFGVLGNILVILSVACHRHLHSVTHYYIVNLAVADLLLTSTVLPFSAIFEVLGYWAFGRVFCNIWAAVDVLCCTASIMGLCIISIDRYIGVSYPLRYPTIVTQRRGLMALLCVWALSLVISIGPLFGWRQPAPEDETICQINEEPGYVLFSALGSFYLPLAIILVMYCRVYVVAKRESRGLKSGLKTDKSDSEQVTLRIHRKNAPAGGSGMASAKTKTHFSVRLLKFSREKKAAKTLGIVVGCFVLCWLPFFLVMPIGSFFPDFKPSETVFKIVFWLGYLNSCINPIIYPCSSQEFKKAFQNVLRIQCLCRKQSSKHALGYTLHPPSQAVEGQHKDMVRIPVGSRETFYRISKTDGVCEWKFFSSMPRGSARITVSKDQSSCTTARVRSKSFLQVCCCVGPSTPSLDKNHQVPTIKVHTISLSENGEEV

[5] = target: Neurotensin receptor type 1 (Homo sapiens, UniProt P30989)
Histamine H1 receptor = Histamine H1 receptor (Homo sapiens, UniProt P35367)
[6] = target: Muscarinic acetylcholine receptor M3 (Homo sapiens, UniProt P20309)
Adenosine receptor A1 = target: T5, Adenosine receptor A1 (Homo sapiens, UniProt P30542)
T5 sequence (P30542 whole entry): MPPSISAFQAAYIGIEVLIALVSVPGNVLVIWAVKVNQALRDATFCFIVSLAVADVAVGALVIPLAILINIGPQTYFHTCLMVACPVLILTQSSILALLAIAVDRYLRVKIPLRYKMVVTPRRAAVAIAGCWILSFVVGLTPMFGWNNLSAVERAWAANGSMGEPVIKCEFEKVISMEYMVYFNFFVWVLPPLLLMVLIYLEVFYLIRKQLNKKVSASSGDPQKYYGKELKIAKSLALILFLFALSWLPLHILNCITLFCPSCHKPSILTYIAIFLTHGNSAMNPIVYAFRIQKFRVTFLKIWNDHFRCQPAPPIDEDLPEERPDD

[7] = target: T1, Gamma-aminobutyric acid receptor subunit alpha-1/alpha-2/beta-2/gamma-2; assay type: protein-complex assay
Also: assay procedure not described here.

Histamine H1 receptor, sequence (P35367 whole entry): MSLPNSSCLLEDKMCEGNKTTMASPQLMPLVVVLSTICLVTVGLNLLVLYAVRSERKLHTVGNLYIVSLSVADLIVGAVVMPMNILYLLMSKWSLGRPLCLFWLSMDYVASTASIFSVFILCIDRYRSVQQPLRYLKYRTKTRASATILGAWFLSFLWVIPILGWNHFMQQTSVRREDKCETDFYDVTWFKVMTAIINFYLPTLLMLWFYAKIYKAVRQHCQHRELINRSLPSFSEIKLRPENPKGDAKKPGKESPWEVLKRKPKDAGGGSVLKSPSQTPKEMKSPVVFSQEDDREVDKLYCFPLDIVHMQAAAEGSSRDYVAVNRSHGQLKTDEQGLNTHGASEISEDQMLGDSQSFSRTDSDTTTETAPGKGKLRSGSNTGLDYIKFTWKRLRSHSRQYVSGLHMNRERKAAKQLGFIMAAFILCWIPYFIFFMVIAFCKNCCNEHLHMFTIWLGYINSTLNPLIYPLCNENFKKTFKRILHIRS
Melanocortin receptor 4, sequence (P32245 whole entry): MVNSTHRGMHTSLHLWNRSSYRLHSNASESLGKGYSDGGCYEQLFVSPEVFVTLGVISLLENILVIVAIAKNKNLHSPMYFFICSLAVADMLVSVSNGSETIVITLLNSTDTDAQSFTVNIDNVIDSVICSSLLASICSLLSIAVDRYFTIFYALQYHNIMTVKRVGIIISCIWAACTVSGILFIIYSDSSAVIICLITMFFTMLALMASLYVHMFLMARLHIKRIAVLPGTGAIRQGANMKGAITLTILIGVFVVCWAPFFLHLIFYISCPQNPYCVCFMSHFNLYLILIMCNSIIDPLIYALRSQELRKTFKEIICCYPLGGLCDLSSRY
Neurotensin receptor type 1, sequence (P30989 whole entry): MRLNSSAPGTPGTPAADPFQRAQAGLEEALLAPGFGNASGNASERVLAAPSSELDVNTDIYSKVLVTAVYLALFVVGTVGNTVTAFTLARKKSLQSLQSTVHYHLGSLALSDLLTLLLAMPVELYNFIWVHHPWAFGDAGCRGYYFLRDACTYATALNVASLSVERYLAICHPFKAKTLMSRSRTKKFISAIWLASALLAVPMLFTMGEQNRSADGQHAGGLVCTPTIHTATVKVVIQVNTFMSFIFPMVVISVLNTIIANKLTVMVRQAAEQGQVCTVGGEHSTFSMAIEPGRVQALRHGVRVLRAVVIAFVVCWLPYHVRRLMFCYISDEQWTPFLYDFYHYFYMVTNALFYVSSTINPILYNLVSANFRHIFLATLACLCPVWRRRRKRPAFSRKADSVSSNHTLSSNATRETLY
Voltage-dependent L-type calcium channel subunit alpha-1C, sequence (P22002 whole entry): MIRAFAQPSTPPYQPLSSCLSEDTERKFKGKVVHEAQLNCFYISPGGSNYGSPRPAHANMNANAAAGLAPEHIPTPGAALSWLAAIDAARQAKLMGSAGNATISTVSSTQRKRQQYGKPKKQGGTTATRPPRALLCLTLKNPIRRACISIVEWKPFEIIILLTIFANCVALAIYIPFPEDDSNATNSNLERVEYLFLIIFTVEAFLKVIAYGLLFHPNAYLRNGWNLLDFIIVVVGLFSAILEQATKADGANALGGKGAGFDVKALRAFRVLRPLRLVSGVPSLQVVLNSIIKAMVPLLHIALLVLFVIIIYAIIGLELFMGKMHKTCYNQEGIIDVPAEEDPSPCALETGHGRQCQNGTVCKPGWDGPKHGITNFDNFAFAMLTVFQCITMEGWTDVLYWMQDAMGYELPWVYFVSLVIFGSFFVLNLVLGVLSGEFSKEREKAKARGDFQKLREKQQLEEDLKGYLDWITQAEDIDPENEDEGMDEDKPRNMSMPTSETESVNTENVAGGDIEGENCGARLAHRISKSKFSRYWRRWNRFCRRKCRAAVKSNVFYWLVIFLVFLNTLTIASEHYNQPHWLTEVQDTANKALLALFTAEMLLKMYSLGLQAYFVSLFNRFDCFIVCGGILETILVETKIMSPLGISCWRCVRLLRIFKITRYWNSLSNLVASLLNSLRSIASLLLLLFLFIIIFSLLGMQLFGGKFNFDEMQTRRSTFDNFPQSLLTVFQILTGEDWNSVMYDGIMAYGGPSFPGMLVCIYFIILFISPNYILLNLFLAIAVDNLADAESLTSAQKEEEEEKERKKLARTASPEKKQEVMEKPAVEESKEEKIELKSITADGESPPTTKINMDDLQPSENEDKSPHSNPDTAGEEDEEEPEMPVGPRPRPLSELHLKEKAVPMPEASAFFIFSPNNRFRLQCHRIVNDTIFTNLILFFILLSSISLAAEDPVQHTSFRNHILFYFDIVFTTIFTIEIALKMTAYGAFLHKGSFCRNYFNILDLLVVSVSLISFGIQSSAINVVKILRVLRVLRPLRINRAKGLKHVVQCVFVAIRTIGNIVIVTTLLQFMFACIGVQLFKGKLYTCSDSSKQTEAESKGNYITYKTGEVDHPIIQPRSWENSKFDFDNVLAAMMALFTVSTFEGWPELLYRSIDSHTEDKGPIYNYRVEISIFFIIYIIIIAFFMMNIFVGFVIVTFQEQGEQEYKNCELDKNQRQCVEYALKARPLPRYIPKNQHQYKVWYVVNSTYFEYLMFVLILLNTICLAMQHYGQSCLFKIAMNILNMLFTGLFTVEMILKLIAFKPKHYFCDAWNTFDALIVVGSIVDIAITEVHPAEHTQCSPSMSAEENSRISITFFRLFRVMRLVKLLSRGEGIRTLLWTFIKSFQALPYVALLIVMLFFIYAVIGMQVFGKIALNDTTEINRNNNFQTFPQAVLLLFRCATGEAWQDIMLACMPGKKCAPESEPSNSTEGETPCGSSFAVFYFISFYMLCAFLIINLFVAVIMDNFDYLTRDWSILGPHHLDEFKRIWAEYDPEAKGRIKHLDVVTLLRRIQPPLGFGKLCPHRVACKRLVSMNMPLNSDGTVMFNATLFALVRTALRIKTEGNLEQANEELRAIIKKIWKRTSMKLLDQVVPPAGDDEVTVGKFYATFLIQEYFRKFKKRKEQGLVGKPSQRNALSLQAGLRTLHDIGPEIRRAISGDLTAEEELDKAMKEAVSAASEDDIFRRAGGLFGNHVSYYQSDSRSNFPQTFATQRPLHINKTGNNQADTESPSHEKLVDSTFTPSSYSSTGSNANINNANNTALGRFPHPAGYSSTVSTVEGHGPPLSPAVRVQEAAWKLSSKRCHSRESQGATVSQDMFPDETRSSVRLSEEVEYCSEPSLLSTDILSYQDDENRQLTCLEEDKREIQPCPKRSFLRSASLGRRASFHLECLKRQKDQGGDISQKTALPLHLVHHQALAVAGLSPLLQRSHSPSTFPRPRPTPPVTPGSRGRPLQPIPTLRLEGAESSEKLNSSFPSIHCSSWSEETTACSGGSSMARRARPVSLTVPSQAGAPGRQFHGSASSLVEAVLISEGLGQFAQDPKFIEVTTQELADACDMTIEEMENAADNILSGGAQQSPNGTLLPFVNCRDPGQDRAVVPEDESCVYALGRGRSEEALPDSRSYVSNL
Glucagon receptor, sequence (P47871 whole entry): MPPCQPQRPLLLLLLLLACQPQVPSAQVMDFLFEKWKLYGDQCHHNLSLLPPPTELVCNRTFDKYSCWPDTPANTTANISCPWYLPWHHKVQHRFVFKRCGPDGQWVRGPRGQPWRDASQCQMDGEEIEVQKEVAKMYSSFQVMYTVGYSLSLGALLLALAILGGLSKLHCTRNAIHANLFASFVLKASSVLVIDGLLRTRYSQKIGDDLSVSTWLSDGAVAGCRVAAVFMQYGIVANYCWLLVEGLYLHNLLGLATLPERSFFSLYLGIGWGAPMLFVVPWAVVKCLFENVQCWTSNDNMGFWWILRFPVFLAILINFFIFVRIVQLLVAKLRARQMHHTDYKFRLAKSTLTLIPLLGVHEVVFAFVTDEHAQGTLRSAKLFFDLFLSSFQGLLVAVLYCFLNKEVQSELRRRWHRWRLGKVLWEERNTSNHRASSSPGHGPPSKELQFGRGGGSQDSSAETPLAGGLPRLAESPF
Muscarinic acetylcholine receptor M3, sequence (P20309 whole entry): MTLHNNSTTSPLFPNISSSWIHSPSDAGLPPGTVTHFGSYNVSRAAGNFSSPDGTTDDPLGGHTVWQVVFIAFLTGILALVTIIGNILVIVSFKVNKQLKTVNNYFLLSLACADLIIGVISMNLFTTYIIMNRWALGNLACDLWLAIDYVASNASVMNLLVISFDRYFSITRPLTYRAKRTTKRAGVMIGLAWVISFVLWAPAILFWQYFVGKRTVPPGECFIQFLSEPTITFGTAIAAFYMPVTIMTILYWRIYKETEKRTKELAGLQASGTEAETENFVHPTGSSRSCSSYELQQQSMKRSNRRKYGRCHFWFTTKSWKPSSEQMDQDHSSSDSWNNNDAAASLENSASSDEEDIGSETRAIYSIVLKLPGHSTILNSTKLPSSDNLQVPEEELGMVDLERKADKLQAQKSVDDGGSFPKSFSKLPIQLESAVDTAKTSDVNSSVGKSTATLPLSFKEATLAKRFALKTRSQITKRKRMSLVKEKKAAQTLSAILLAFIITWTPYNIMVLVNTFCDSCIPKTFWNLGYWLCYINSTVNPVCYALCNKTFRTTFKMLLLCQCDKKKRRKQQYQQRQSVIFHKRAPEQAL
Cannabinoid receptor 1, sequence (P21554 whole entry): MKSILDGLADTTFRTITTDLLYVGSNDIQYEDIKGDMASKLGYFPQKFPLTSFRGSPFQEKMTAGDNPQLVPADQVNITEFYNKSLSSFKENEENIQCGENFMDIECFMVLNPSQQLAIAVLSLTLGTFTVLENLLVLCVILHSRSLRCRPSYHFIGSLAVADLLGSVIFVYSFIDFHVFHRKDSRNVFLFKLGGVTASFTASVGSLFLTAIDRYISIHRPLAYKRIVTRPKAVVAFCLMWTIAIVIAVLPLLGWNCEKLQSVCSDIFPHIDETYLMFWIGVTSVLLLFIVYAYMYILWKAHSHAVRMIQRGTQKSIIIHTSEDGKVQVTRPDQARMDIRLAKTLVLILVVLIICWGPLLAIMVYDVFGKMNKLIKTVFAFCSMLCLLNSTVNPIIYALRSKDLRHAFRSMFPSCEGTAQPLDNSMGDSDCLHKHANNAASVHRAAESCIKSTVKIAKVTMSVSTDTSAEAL

Compound | AC50 (Melanocortin receptor 4) | AC50 (Glucagon receptor) | AC50 [1] | AC50 [2] | AC50 [3] | AC50 (Glucocorticoid receptor) | AC50 (Cannabinoid receptor 1) | AC50 [4] | AC50 [5] | AC50 (Histamine H1 receptor) | AC50 [6] | AC50 (Adenosine receptor A1) | AC50 [7]
CCOc1nc2cccc(C(=O)O)c2n1Cc1ccc(-c2ccccc2-c2nnn[nH]2)cc1 | > 10 µM | > 30 µM | > 30 µM | > 30 µM | > 10 µM | > 30 µM | > 10 µM | > 10 µM | > 30 µM |  |  |  | 
CCCc1nc2c(C)cc(-c3nc4ccccc4n3C)cc2n1Cc1ccc(-c2ccccc2C(=O)O)cc1 | > 30 µM | > 30 µM | > 30 µM | > 30 µM | > 30 µM | > 30 µM | > 30 µM | > 10 µM | > 30 µM | > 30 µM | > 30 µM |  | 
Nc1c(CC(=O)O)cccc1C(=O)c1ccc(Br)cc1 [BROMFENAC] |  |  |  |  |  |  |  |  |  |  |  | 23.6 µM | 
Cc1nc(Nc2ncc(C(=O)Nc3c(C)cccc3Cl)s2)cc(N2CCN(CCO)CC2)n1 [DASATINIB] | > 30 µM | > 10 µM |  |  | > 10 µM |  | > 10 µM | > 10 µM |  | > 30 µM | > 30 µM |  | 
O=C(O)Cc1ccccc1Nc1c(Cl)cccc1Cl [DICLOFENAC] | > 30 µM | > 30 µM |  | > 30 µM | > 10 µM |  | > 10 µM | > 10 µM | > 30 µM |  |  |  | > 3 µM
CN[C@@H]1[C@H](O[C@H]2[C@H](O[C@H]3[C@H](O)[C@@H](O)[C@H](NC(=N)N)[C@@H](O)[C@@H]3NC(=N)N)O[C@@H](C)[C@]2(O)CO)O[C@@H](CO)[C@H](O)[C@H]1O [DIHYDROSTREPTOMYCIN] |  |  |  |  |  |  |  |  |  |  |  | > 30 µM | 
CC[C@H]1OC(=O)[C@H](C)[C@@H](O[C@H]2C[C@@](C)(OC)[C@@H](O)[C@H](C)O2)[C@H](C)[C@@H](O[C@@H]2O[C@H](C)C[C@H](N(C)C)[C@H]2O)[C@](C)(O)C[C@@H](C)[C@@H]2N[C@@H](COCCOC)O[C@H]([C@H]2C)[C@]1(C)O [DIRITHROMYCIN] |  |  |  |  |  |  |  |  |  |  |  | > 30 µM | 
O=C(O)Cc1ccccc1Oc1ccc(Cl)cc1Cl [FENCLOFENAC] | > 30 µM | > 30 µM |  | > 30 µM | > 10 µM | > 30 µM | > 10 µM | > 10 µM | > 30 µM | > 10 µM | > 10 µM |  | 
Cc1ccc(C)c(OCCCC(C)(C)C(=O)O)c1 [GEMFIBROZIL] | > 30 µM | > 30 µM |  | > 30 µM | > 10 µM |  | > 10 µM | > 10 µM | > 30 µM |  |  |  | 
C#C[C@]1(O)C=C[C@H]2[C@@H]3CCC4=CC(=O)CC[C@@H]4[C@H]3CC[C@@]21CC [GESTODENE] |  |  |  |  |  |  |  |  |  |  |  | > 30 µM | 
COc1ccccc1OC1(C)OC(=O)c2ccccc2O1 (stereo not given) [GUAIMESAL] |  |  |  |  |  | > 30 µM |  |  |  |  |  | > 30 µM | 
C[N+](C)(CCCCCC[N+](C)(C)C1c2ccccc2-c2ccccc21)C1c2ccccc2-c2ccccc21 [HEXAFLUORENIUM] |  |  |  |  |  |  |  |  |  |  |  | > 30 µM | 
CC[C@H](C)C(=O)O[C@H]1C[C@@H](C)C=C2C=C[C@H](C)[C@H](CC[C@@H]3C[C@@H](O)CC(=O)O3)[C@H]21 [LOVASTATIN] | > 30 µM | > 30 µM |  | > 30 µM | > 10 µM | > 30 µM | > 10 µM | > 10 µM | > 30 µM |  |  |  | 
CN(CCOc1ccc(CC2SC(=O)NC2=O)cc1)c1ccccn1 (stereo not given) [ROSIGLITAZONE] | 23.7 µM | > 30 µM |  | > 30 µM | > 30 µM |  | 16 µM | > 10 µM | > 30 µM |  |  |  | 
CC(C)C[C@H](NC(=O)[C@@H](O)[C@H](N)Cc1ccccc1)C(=O)O [UBENIMEX] |  |  |  |  | > 30 µM | 20 µM |  |  |  |  |  | > 30 µM | 
CC(C)[C@H](N)C(=O)OCCOCn1cnc2c(=O)[nH]c(N)nc21 [VALACYCLOVIR] | > 30 µM | > 30 µM |  | > 30 µM | > 10 µM | > 30 µM | > 10 µM | > 10 µM | > 30 µM |  |  |  | 
